Test results taken from ChEMBL document CHEMBL1255485, “In vitro activity of fidaxomicin (OPT-80) tested against contemporary clinical isolates of Staphylococcus spp. and Enterococcus spp” (2010).
≈ marks a conversion by molar mass, not a printed value.

What was measured:
Format in all cases: functional
Staphylococcus aureus [1] = assay: Antibacterial activity against methicillin-susceptible Staphylococcus aureus by broth microdilution method
Staphylococcus aureus [2] = assay: Antibacterial activity against methicillin-resistant Staphylococcus aureus by broth microdilution method
Staphylococcus [3] = assay: Antibacterial activity against methicillin-susceptible coagulase-negative Staphylococcus by broth microdilution method
Staphylococcus [4] = assay: Antibacterial activity against methicillin-resistant coagulase-negative Staphylococcus by broth microdilution method
Enterococcus faecalis [5] = assay: Antibacterial activity against vancomycin-susceptible Enterococcus faecalis by broth microdilution method
Enterococcus faecalis [6] = assay: Antibacterial activity against vancomycin-resistant Enterococcus faecalis by broth microdilution method
Enterococcus faecium [7] = assay: Antibacterial activity against vancomycin-susceptible Enterococcus faecium by broth microdilution method
Enterococcus faecium [8] = assay: Antibacterial activity against vancomycin-resistant Enterococcus faecium by broth microdilution method
Staphylococcus aureus [9] = assay: Antibacterial activity against methicillin-susceptible Staphylococcus aureus assessed as percent resistant isolates by broth microdilution method
Staphylococcus aureus [10] = assay: Antibacterial activity against methicillin-resistant Staphylococcus aureus assessed as percent resistant isolates by broth microdilution method
Staphylococcus [11] = assay: Antibacterial activity against methicillin-susceptible coagulase-negative Staphylococcus assessed as percent susceptible isolates by broth microdilution method
Staphylococcus [12] = assay: Antibacterial activity against methicillin-resistant coagulase-negative Staphylococcus assessed as percent susceptible isolates by broth microdilution method
Staphylococcus [13] = assay: Antibacterial activity against methicillin-resistant coagulase-negative Staphylococcus assessed as percent resistant isolates by broth microdilution method
Enterococcus faecalis [14] = assay: Antibacterial activity against vancomycin-susceptible Enterococcus faecalis assessed as percent susceptible isolates by broth microdilution method
Enterococcus faecalis [15] = assay: Antibacterial activity against vancomycin-susceptible Enterococcus faecalis assessed as percent resistant isolates by broth microdilution method
Enterococcus faecalis [16] = assay: Antibacterial activity against vancomycin-resistant Enterococcus faecalis assessed as percent susceptible isolates by broth microdilution method
Enterococcus faecalis [17] = assay: Antibacterial activity against vancomycin-resistant Enterococcus faecalis assessed as percent resistant isolates by broth microdilution method
Enterococcus faecium [18] = assay: Antibacterial activity against vancomycin-susceptible Enterococcus faecium assessed as percent susceptible isolates by broth microdilution method
Enterococcus faecium [19] = assay: Antibacterial activity against vancomycin-susceptible Enterococcus faecium assessed as percent resistant isolates by broth microdilution method
Enterococcus faecium [20] = assay: Antibacterial activity against vancomycin-resistant Enterococcus faecium assessed as percent susceptible isolates by broth microdilution method
Enterococcus faecium [21] = assay: Antibacterial activity against vancomycin-resistant Enterococcus faecium assessed as percent resistant isolates by broth microdilution method
Staphylococcus aureus [22] = assay: Selectivity ratio of MIC50 for methicillin-susceptible Staphylococcus aureus to MIC50 for methicillin-resistant Staphylococcus aureus
Staphylococcus aureus [23] = assay: Antibacterial activity against linezolid-nonsusceptible Staphylococcus aureus by broth microdilution method
[24] = Selectivity ratio of MIC50 for vancomycin-susceptible Enterococcus faecium to MIC50 for vancomycin-susceptible Enterococcus faecalis
[25] = Selectivity ratio of MIC50 for vancomycin-resistant Enterococcus faecium to MIC50 for vancomycin-resistant Enterococcus faecalis
[26] = Selectivity ratio of MIC90 for vancomycin-resistant Enterococcus faecium to MIC90 for vancomycin-resistant Enterococcus faecalis
Staphylococcus aureus [27] = assay: Selectivity ratio of MBC to MIC for Staphylococcus aureus
Staphylococcus [28] = assay: Selectivity ratio of MBC to MIC for coagulase-negative Staphylococcus
Enterococcus faecalis [29] = assay: Selectivity ratio of MBC to MIC for Enterococcus faecalis
Enterococcus faecium [30] = assay: Selectivity ratio of MBC to MIC for Enterococcus faecium
Staphylococcus [31] = assay: Antibacterial activity against Staphylococcus by agar dilution technique
Enterococcus = assay: Antibacterial activity against Enterococcus by agar dilution technique

Row | SMILES | MIC50 (Staphylococcus aureus [1]) | MIC90 (Staphylococcus aureus [1]) | MIC50 (Staphylococcus aureus [2]) | MIC90 (Staphylococcus aureus [2]) | MIC50 (Staphylococcus [3]) | MIC90 (Staphylococcus [3]) | MIC50 (Staphylococcus [4]) | MIC90 (Staphylococcus [4]) | MIC (Enterococcus faecalis [5]) | MIC50 (Enterococcus faecalis [5]) | MIC90 (Enterococcus faecalis [5]) | MIC (Enterococcus faecalis [6]) | MIC50 (Enterococcus faecalis [6]) | MIC90 (Enterococcus faecalis [6]) | MIC50 (Enterococcus faecium [7]) | MIC90 (Enterococcus faecium [7]) | MIC50 (Enterococcus faecium [8]) | MIC90 (Enterococcus faecium [8]) | Activity (Staphylococcus aureus [9]) | Activity (Staphylococcus aureus [10]) | further results
1 | CN[C@H](CC(C)C)C(=O)N[C@H]1C(=O)N[C@@H](CC(N)=O)C(=O)N[C@H]2C(=O)N[C@H]3C(=O)N[C@H](C(=O)N[C@H](C(=O)O)c4cc(O)cc(O)c4-c4cc3ccc4O)[C@H](O)c3ccc(c(Cl)c3)Oc3cc2cc(c3O[C@@H]2O[C@H](CO)[C@@H](O)[C@H](O)[C@H]2O[C@H]2C[C@](C)(N)[C@H](O)[C@H](C)O2)Oc2ccc(cc2Cl)[C@H]1O [VANCOMYCIN] | 1 µg/mL (≈ 0.69 µM) | 1 µg/mL (≈ 0.69 µM) | 1 µg/mL (≈ 0.69 µM) | 16 µg/mL (≈ 11 µM) | 1 µg/mL (≈ 0.69 µM) | 2 µg/mL (≈ 1.38 µM) | 2 µg/mL (≈ 1.38 µM) | 2 µg/mL (≈ 1.38 µM) | 1 µg/mL (≈ 0.69 µM) | 1 µg/mL (≈ 0.69 µM) | 1 µg/mL (≈ 0.69 µM) | > 16 µg/mL | > 16 µg/mL | > 16 µg/mL | > 0.5 µg/mL | 1 µg/mL (≈ 0.69 µM) | > 16 µg/mL | > 16 µg/mL | 0% | 15.6% | MIC (Enterococcus faecium [8]): > 16 µg/mL; Activity (Staphylococcus [11]): 100%; Activity (Staphylococcus [12]): 100%; Activity (Staphylococcus [13]): 0%; Activity (Enterococcus faecalis [14]): 100%; Activity (Enterococcus faecalis [15]): 0%; Activity (Enterococcus faecalis [16]): 0%; Activity (Enterococcus faecalis [17]): 100%; Activity (Enterococcus faecium [18]): 100%; Activity (Enterococcus faecium [19]): 0%; Activity (Enterococcus faecium [20]): 0%; Activity (Enterococcus faecium [21]): 100%
2 | C[C@H]1COc2c(N3CCN(C)CC3)c(F)cc3c(=O)c(C(=O)O)cn1c23.C[C@H]1COc2c(N3CCN(C)CC3)c(F)cc3c(=O)c(C(=O)O)cn1c23.O [LEVOFLOXACIN] |  |  |  |  |  |  |  |  |  |  |  |  |  |  |  |  |  |  | 9.3% | 56.3% | 
3 | CO[C@H]1/C=C/O[C@@]2(C)Oc3c(C)c(O)c4c(O)c(c(/C=N/N5CCN(C)CC5)c(O)c4c3C2=O)NC(=O)/C(C)=C\C=C\[C@H](C)[C@H](O)[C@@H](C)[C@@H](O)[C@@H](C)[C@H](OC(C)=O)[C@@H]1C [RIFAMPIN] |  |  |  |  |  |  |  |  |  |  |  |  |  |  |  |  |  |  | 2.3% | 18.8% | 
4 | CCc1c(Cl)c(O)c(Cl)c(O)c1C(=O)O[C@H]1[C@H](O)[C@H](OC)[C@H](OC/C2=C\C=C\C[C@H](O)/C(C)=C/[C@H](CC)[C@@H](O[C@@H]3OC(C)(C)[C@@H](OC(=O)C(C)C)[C@H](O)[C@@H]3O)/C(C)=C/C(C)=C/C[C@@H]([C@@H](C)O)OC2=O)O[C@@H]1C [FIDAXOMICIN] | 8 µg/mL (≈ 7.56 µM) | 8 µg/mL (≈ 7.56 µM) | 4 µg/mL (≈ 3.78 µM) | 8 µg/mL (≈ 7.56 µM) | 2 µg/mL (≈ 1.89 µM) | 4 µg/mL (≈ 3.78 µM) | 1 µg/mL (≈ 0.945 µM) | 4 µg/mL (≈ 3.78 µM) | 2 µg/mL (≈ 1.89 µM) | 2 µg/mL (≈ 1.89 µM) | 4 µg/mL (≈ 3.78 µM) | 2 µg/mL (≈ 1.89 µM) | 2 µg/mL (≈ 1.89 µM) | 2 µg/mL (≈ 1.89 µM) | 4 µg/mL (≈ 3.78 µM) | 4 µg/mL (≈ 3.78 µM) | 4 µg/mL (≈ 3.78 µM) | 4 µg/mL (≈ 3.78 µM) |  |  | Ratio (Staphylococcus aureus [22]): 2; MIC (Staphylococcus aureus [23]): > 4 µg/mL; Ratio [24]: 2; Ratio [25]: 2; Ratio [26]: 2; Selectivity ratio (Staphylococcus aureus [27]): >=16; Selectivity ratio (Staphylococcus [28]): >=16; Selectivity ratio (Enterococcus faecalis [29]): >=16; Selectivity ratio (Enterococcus faecium [30]): >=16; MIC90 (Staphylococcus [31]): 2 µg/mL (≈ 1.89 µM); MIC90 (Enterococcus): 8 µg/mL (≈ 7.56 µM)
5 | CC[C@H]1OC(=O)[C@H](C)[C@@H](O[C@H]2C[C@@](C)(OC)[C@@H](O)[C@H](C)O2)[C@H](C)[C@@H](O[C@@H]2O[C@H](C)C[C@H](N(C)C)[C@H]2O)[C@](C)(O)C[C@@H](C)C(=O)[C@H](C)[C@@H](O)[C@]1(C)O [ERYTHROMYCIN] |  |  |  |  |  |  |  |  |  |  |  |  |  |  |  |  |  |  | 16.3% | 87.5% | 
6 | CCC[C@@H]1C[C@@H](C(=O)N[C@@H]([C@H]2O[C@H](SC)[C@H](O)[C@@H](O)[C@H]2O)[C@H](C)Cl)N(C)C1 [CLINDAMYCIN] |  |  |  |  |  |  |  |  |  |  |  |  |  |  |  |  |  |  | 2.3% | 43.8% | 
